The target of test [1] is T1, human sodium glucose cotransporter 2 (Homo sapiens, UniProt P31639).
T1 construct: expressed in transfected cells; host or cells: CHO-K1 (ATCC CCL-61) or HEK293 (ATCC CRL-1573), stably transfected with pZeoSV expression vector
T1 sequence (P31639 1-672): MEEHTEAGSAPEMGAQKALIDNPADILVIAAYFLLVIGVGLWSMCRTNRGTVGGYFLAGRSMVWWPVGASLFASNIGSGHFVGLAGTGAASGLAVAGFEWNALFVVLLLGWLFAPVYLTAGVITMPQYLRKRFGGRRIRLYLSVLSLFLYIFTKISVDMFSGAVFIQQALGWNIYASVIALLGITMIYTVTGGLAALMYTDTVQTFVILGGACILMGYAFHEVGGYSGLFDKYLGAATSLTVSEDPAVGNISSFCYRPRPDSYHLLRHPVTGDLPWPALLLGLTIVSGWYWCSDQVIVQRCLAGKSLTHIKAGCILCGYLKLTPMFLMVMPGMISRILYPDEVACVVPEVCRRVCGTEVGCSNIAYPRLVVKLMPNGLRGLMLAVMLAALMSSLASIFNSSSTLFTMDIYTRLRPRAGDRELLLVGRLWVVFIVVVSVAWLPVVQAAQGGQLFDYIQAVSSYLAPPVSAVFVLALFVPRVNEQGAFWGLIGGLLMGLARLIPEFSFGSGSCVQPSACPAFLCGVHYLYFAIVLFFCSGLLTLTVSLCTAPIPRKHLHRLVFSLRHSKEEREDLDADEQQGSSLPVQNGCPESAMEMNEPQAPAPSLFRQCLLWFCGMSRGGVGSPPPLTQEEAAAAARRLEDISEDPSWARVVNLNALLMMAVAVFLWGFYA
Kind of test: SGLT-2 assay: 14C-AMG uptake in CHO-hSGLT2 or HEK293-hSGLT2 cells. The format is cell-based. The settings on record: n = 1-4, hSGLT2-transfected cells, read-out: SGLT2 IC50 nM (n = 1-4). How it is done:
These cell lines transport 14 C-labelled alpha-methyl-glucopyranoside (14 C-AMG, Amersham) into the interior of the cell in sodium-dependent manner.
The SGLT-2 assay is carried out as follows: CHO-hSGLT2 cells are cultivated in Ham's F12 Medium (BioWhittaker) with 10% foetal calf serum and 250 μg/mL zeocin (Invitrogen), and HEK293-hSGLT2 cells are cultivated in DMEM medium with 10% foetal calf serum and 250 μg/mL zeocin (Invitrogen). The cells are detached from the culture flasks by washing twice with PBS and subsequently treating with trypsin/EDTA. After the addition of cell culture medium the cells are centrifuged, resuspended in culture medium and counted in a Casy cell counter. Then 40,000 cells per well are seeded into a white, 96-well plate coated with poly-D-Iysine and incubated overnight at 37° C., 5% CO2. The cells are washenwice with 250 μl of assay buffer (Hanks Balanced Salt Solution, 137 mM NaCl, 5.4 mM KCl, 2.8 mM CaCl2, 1.2 mM MgSO4 and 10 mM HEPES (pH 7.4), 50 μg/mL of gentamycin). 250 μl of assay buffer and 5 μl of test compound are then added to each well and the plate is incubated for a further 15 minutes in the incubator. 5 μl of 10% DMSO are used as the negative control. The reaction is started by adding 5 μl of 14 C-AMG (0.05 μCi) to each well. After 2 hours' incubation at 37° C., 5% CO2, the cells are washed again with 250 μl of PBS (200C) and then lysed by the addition of 25 μl of 0.1 N NaOH (5 min. at 37° C.). 200 μl of MicroScint20 (Packard) are added to each well and incubation is continued for a further 20 min at 37° C. After this incubation the radioactivity of the 14 C-AMG absorbed is measured in a Topcount (Packard) using a 14 C scintillation program.

The target in test [2] is T2, human SGLT1 (Homo sapiens, UniProt P13866).
T2 construct: expressed in transfected cells; host or cells: CHO-K1 or HEK293 cells
T2 sequence (P13866 1-664): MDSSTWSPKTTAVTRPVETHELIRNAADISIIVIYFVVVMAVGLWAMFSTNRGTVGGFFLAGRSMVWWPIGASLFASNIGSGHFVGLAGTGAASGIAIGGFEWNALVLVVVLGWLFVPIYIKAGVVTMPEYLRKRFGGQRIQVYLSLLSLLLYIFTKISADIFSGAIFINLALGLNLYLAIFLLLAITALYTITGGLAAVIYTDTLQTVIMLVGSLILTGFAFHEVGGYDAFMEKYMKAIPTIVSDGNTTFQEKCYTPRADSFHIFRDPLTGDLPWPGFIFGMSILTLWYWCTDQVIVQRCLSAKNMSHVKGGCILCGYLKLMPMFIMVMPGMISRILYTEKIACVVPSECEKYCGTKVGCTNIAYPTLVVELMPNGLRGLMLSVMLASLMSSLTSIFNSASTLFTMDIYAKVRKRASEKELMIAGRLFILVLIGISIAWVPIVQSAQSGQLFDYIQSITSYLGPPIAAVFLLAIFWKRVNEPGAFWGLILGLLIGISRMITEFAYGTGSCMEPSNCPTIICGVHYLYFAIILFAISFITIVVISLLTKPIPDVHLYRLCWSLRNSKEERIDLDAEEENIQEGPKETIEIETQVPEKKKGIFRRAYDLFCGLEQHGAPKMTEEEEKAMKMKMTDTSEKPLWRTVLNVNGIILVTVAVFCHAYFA
Nature of the test: hSGLT1 assay: analogous [14C]-AMG uptake in CHO-K1 or HEK293 cells expressing hSGLT1. It is filed as cell-based. The conditions noted are these: n = 1-4, hSGLT1-transfected cells. How it is done: To determine human SGLT1 inhibitory activity, an analogous test was set up in which the cDNA for hSGLTI (Genbank Ace. No. NM000343) instead of hSGLT2 cDNA is expressed in CHO-K1 or HEK293 cells. The uptake assay buffer in the case of the hSGLT1 assay contains 10 mM HEPES, 5 mM Tris, 140 mM NaCl, 2 mM KCl, 1 mM CaCl2, and 1 mM MgCl2, pH 7.4 containing 0.5 mM of α-methyl-D-glucopyranoside (AMG), 10 μM of [^14C]-α-methyl-D-glucopyranoside and different inhibitor concentrations.

What is called IC50 is the midpoint of a concentration-inhibition curve. Turning to `CCOc1ccc(Cc2cc([C@@H]3O[C@H](CSc4cc(C(=O)N5CCC5)ccc4F)[C@@H](O)[C@H](O)[C@H]3O)ccc2Cl)cc1` [Example 37, Azetidin-1-yl-(3-{(2S,3S,4R,5R,6S)-6-[4-chloro-3-(4-ethoxy-benzyl)-phenyl]-3,4,5-trihydroxy-tetrahydro-pyran-2-ylmethylsulfanyl}-4-fluoro-phenyl)-methanone], the values for the IC50 in test [1] and in test [2] were 3 nM and below 50 nM, respectively.

Regarding `CCOc1ccc(Cc2cc([C@@H]3O[C@H](CSc4cc(C(=O)NC)ccc4F)[C@@H](O)[C@H](O)[C@H]3O)ccc2Cl)cc1` [Example 27, 3-{(2S,3S,4R,5R,6S)-6-[4-Chloro-3-(4-ethoxy-benzyl)-phenyl]-3,4,5-trihydroxy-tetrahydro-pyran-2-ylmethylsulfanyl}-4-fluoro-N-methyl-benzamide], the IC50 in test [1] is 6 nM; in test [2] it was below 50 nM.

As for `CCOc1ccc(Cc2cc([C@@H]3O[C@H](CSc4cccc(C(=O)N5CCCC5)c4)[C@@H](O)[C@H](O)[C@H]3O)ccc2Cl)cc1` [Example 47, (3-{(2S,3S,4R,5R,6S)-6-[4-Chloro-3-(4-ethoxy-benzyl)-phenyl]-3,4,5-trihydroxy-tetrahydro-pyran-2-ylmethylsulfanyl}-phenyl)-pyrrolidin-1 yl-methanone], the values for the IC50 in test [1] and in test [2] were 14 nM and below 50 nM, respectively.

With `CCOc1ccc(Cc2cc([C@@H]3O[C@H](CSc4cccs4)[C@@H](O)[C@H](O)[C@H]3O)ccc2Cl)cc1` [Example 11, (2S,3R,4R,5S,6S)-2-[4-Chloro-3-(4-ethoxy-benzyl)-phenyl]-6-(thiophen-2-ylsulfanylmethyl)-tetrahydro-pyran-3,4,5-triol], the IC50 in test [1] is 60 nM; in test [2], below 1000 nM.

Take `CCOc1ccc(Cc2cc([C@@H]3O[C@H](CSc4cccc(C(=O)NC)c4)[C@@H](O)[C@H](O)[C@H]3O)ccc2Cl)cc1` [Example 40, 3-{(2S,3S,4R,5R,6S)-6-[4-Chloro-3-(4-ethoxy-benzyl)-phenyl]-3,4,5-trihydroxy-tetrahydro-pyran-2-ylmethylsulfanyl}-N-methyl-benzamide]: the IC50 in test [1] is 13 nM; in test [2], below 50 nM.

For the compound `CCOc1ccc(Cc2cc([C@@H]3O[C@H](CSc4cc(C(N)=O)ccc4F)[C@@H](O)[C@H](O)[C@H]3O)ccc2Cl)cc1` [Example 26], the IC50 in test [1] was 12 nM; in test [2] it was below 50 nM.

Regarding `CCOc1ccc(Cc2cc([C@@H]3O[C@H](CSc4cccc(C(=O)N(C)C)c4)[C@@H](O)[C@H](O)[C@H]3O)ccc2Cl)cc1` [Example 50, 3-{(2S,3S,4R,5R,6S)-6-[4-Chloro-3-(4-ethoxy-benzyl)-phenyl]-3,4,5-trihydroxy-tetrahydro-pyran-2-ylmethylsulfanyl}-N,N-dimethyl-benzamide], the IC50 in test [1] was 8 nM; in test [2], below 50 nM.

Source of the values: patent US20110230403A1, “GLYCOSIDE DERIVATIVES AND USES THEREOF” (NOVARTIS AG, priority 2008, published 2011).
